Data: patent publication US20100298141A1, “SUBSTITUTED PYRIDINE N-OXIDE HERBICIDES” (E. I. DU PONT DE NEMOURS AND COMPANY, priority 2007, published 2010)

Columns and labels:
[1] = test system: redroot pigweed; experiment: Test A pre-/postemergence greenhouse test; assay type: in vivo, Amaranthus retroflexus; conditions: for Plant response rating, Pigweed: 0 to 100 scale where 0 is no effect and 100 is complete control; for Pigweed plant response rating: 0 to 100 scale
Procedure, shortened: (§1)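 Sowing in loam/sand; same-day pre (directed soil spray) and post (foliar, 1–2 leaf, 2–10 cm) treatment with surfactant-containing non-phytotoxic solvent formulation; ~10 days in greenhouse; eye-scored injury against untreated plants.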

[2] = test system: barnyardgrass; experiment: Test C flooded paddy test; assay type: in vivo, Echinochloa crus-galli; conditions: Flood
Procedure, shortened: (§2)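 Visual injury ratings against untreated controls, taken 13 to 15 days after compound was added to paddy water standing 3 cm above the soil.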

[3] = test system: eastern black nightshade; experiment: Test C pre-/postemergence test; assay type: in vivo, Solanum ptycanthum
Procedure, shortened: (§3)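 Seeds were planted and treated preemergence with test chemical in a non-phytotoxic solvent mixture containing surfactant. Postemergence applications of the same formulation went onto plants 2 to 18 cm tall (1- to 4-leaf stage). A dash marks no test result.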

[4] = test system: lambsquarters; experiment: Test C pre-/postemergence test; assay type: in vivo, Chenopodium album
Procedure, shortened: as §3

[5] = test system: giant foxtail; experiment: Test A pre-/postemergence greenhouse test; assay type: in vivo, Setaria faberi; conditions: for Plant response rating, Foxtail, Giant: 0 to 100 scale where 0 is no effect and 100 is complete control; for Foxtail, Giant plant response rating: 0 to 100 scale
Procedure, shortened: as §1

[6] = test system: Surinam grass; experiment: Test C pre-/postemergence test; assay type: in vivo, Brachiaria decumbens
Procedure, shortened: as §3

[7] = test system: giant foxtail; experiment: Test C pre-/postemergence test; assay type: in vivo, Setaria faberii
Procedure, shortened: as §3

[8] = test system: rice; experiment: Test C flooded paddy test; assay type: in vivo, Oryza sativa; conditions: Flood
Procedure, shortened: as §2

[9] = test system: corn; experiment: Test A pre-/postemergence greenhouse test; assay type: in vivo, Zea mays; conditions: for Plant response rating, Corn: 0 to 100 scale where 0 is no effect and 100 is complete control; for Corn plant response rating: 0 to 100 scale
Procedure, shortened: as §1

[10] = test system: bermudagrass; experiment: Test C pre-/postemergence test; assay type: in vivo, Cynodon dactylon
Procedure, shortened: as §3

[11] = test system: wheat; experiment: Test A pre-/postemergence greenhouse test; assay type: in vivo, Triticum aestivum; conditions: for Plant response rating, Wheat: 0 to 100 scale where 0 is no effect and 100 is complete control; for Wheat plant response rating: 0 to 100 scale
Procedure, shortened: as §1

[12] = test system: wild oat; experiment: Test C pre-/postemergence test; assay type: in vivo, Avena fatua
Procedure, shortened: as §3

[13] = test system: common ragweed; experiment: Test C pre-/postemergence test; assay type: in vivo, Ambrosia elation
Procedure, shortened: as §3

[14] = test system: velvetleaf; experiment: Test C pre-/postemergence test; assay type: in vivo, Abutilon theophrasti
Procedure, shortened: as §3

[15] = test system: Goosegrass; experiment: Test C pre-/postemergence test; assay type: in vivo, Eleusin indica
Procedure, shortened: as §3

[16] = test system: johnsongrass; experiment: Test C pre-/postemergence test; assay type: in vivo, Sorghum halepense
Procedure, shortened: as §3

[17] = test system: velvetleaf; experiment: Test A pre-/postemergence greenhouse test; assay type: in vivo, Abutilon theophrasti; conditions: for Plant response rating, Velvetleaf: 0 to 100 scale where 0 is no effect and 100 is complete control; for Velvetleaf plant response rating: 0 to 100 scale
Procedure, shortened: as §1

[18] = test system: duck salad; experiment: Test C flooded paddy test; assay type: in vivo, Heteranthera limosa; conditions: Flood
Procedure, shortened: as §2

[19] = Postemergence, 500 g ai/ha, 0 is no effect, 100 is complete control
[20] = Preemergence, 125 g ai/ha, 0 no effect, 100 complete control
[21] = 62 g ai/ha, scale 0 to 100 (0 no effect, 100 complete control)
[22] = 250 g ai/ha, scale 0 to 100, 0 no effect, 100 complete control, 13 to 15 days
[23] = 62 g ai/ha, Preemergence, scale 0 to 100
[24] = 125 g ai/ha, preemergence, scale 0 (no effect) to 100 (complete control)
[25] = Preemergence, 31 g ai/ha, scale 0 to 100 (0 no effect, 100 complete control)
[26] = preemergence, 250 g ai/ha, scale 0 (no effect) to 100 (complete control)
[27] = Postemergence, 62 g ai/ha, scale 0 to 100, 0 no effect, 100 complete control
[28] = Postemergence, 125 g ai/ha, scale 0 to 100, 0 no effect, 100 complete control
[29] = Postemergence, 250 g ai/ha, scale 0 to 100, 0 no effect, 100 complete control

With Cn1nc(C(F)(F)F)c(C[S+]([O-])c2ccc(Cl)c[n+]2[O-])c1OCC(F)(F)F (racemic) [Compound 62] the “Plant response rating, Pigweed” value ([1]; Postemergence, 125 g ai/ha) was 60, the “Pigweed plant response rating” value [1, 19] was 80 and the “Pigweed plant response rating” value [1, 20] was 100. For the same molecule, the “Plant response rating, Pigweed” value ([1]; Preemergence, 500 g ai/ha) was 100, the “Plant response rating, Barnyardgrass” value [2, 21] was 30 and the “Plant response rating, Barnyardgrass” value [2, 22] was 70. For the same molecule, the “Nightshade plant response rating” value [3, 23] was 100, the “Nightshade plant response rating” value [3, 24] was 100 and the “Plant response rating, Nightshade” value [3, 25] was 100. The “Nightshade plant response rating” value [3, 26] was 100, the “Lambsquarters plant response rating” value [4, 23] was 100 and the “Lambsquarters plant response rating” value [4, 24] was 100. The “Plant response rating (0 to 100), Lambsquarters” value ([4]; Postemergence, 31 g ai/ha) was 0, the “Plant response rating, Lambsquarters” value [4, 27] was 0 and the “Plant response rating, Lambsquarters” value [4, 28] was 0. The “Plant response rating, Lambsquarters” value [4, 29] was 0, the “Plant response rating, Lambsquarters” value [4, 25] was 100 and the “Lambsquarters plant response rating” value [4, 26] was 100. The “Plant response rating, Foxtail, Giant” value ([5]; Postemergence, 125 g ai/ha) was 90, the “Foxtail, Giant plant response rating” value [5, 19] was 90 and the “Foxtail, Giant plant response rating” value [5, 20] was 100. For the same molecule, the “Plant response rating, Foxtail, Giant” value ([5]; Preemergence, 500 g ai/ha) was 100, the “Surinam Grass plant response rating” value [6, 23] was 98 and the “Surinam Grass plant response rating” value [6, 24] was 100. For the same molecule, the “Plant response rating (0 to 100), Surinam Grass” value ([6]; Postemergence, 31 g ai/ha) was 0, the “Plant response rating (0 to 100), Surinam Grass” value ([6]; Postemergence, 62 g ai/ha) was 0 and the “Plant response rating, Surinam Grass” value [6, 28] was 0. The “Plant response rating, Surinam Grass” value [6, 29] was 60, the “Plant response rating, Surinam Grass” value [6, 25] was 80 and the “Surinam Grass plant response rating” value [6, 26] was 100. The “Foxtail, Giant plant response rating” value [7, 23] was 100, the “Foxtail, Giant plant response rating” value [7, 24] was 100 and the “Plant response rating (0 to 100), Foxtail, Giant” value ([7]; Postemergence, 31 g ai/ha) was 0. The “Plant response rating, Foxtail, Giant” value [7, 27] was 0, the “Plant response rating, Foxtail, Giant” value [7, 28] was 40 and the “Plant response rating, Foxtail, Giant” value [7, 29] was 70. The “Plant response rating, Foxtail, Giant” value [7, 25] was 70, the “Foxtail, Giant plant response rating” value [7, 26] was 100 and the “Plant response rating, Rice” value [8, 21] was 60. The “Plant response rating, Rice” value [8, 22] was 90, the “Plant response rating, Corn” value ([9]; Postemergence, 125 g ai/ha) was 50 and the “Corn plant response rating” value [9, 19] was 70. For the same molecule, the “Corn plant response rating” value [9, 20] was 80, the “Plant response rating, Corn” value ([9]; Preemergence, 500 g ai/ha) was 90 and the “Bermudagrass plant response rating” value ([10]; 62 g ai/ha, Preemergence, scale 0 to 100 (0 no effect, 100 complete control)) was 100. The “Bermudagrass plant response rating” value [10, 24] was 100, the “Plant response rating (0 to 100), Bermudagrass” value ([10]; Postemergence, 31 g ai/ha) was 0 and the “Plant response rating, Bermudagrass” value [10, 27] was 0. For the same molecule, the “Plant response rating, Bermudagrass” value [10, 28] was 30, the “Plant response rating, Bermudagrass” value [10, 29] was 35 and the “Plant response rating, Bermudagrass” value [10, 25] was 100. The “Bermudagrass plant response rating” value [10, 26] was 100, the “Plant response rating, Wheat” value ([11]; Postemergence, 125 g ai/ha) was 60 and the “Wheat plant response rating” value [11, 19] was 60. For the same molecule, the “Wheat plant response rating” value [11, 20] was 70, the “Plant response rating, Wheat” value ([11]; Preemergence, 500 g ai/ha) was 100 and the “Oat, Wild plant response rating” value [12, 23] was 85. The “Oat, Wild plant response rating” value [12, 24] was 95, the “Plant response rating (0 to 100), Oat, Wild” value ([12]; Postemergence, 31 g ai/ha) was 0 and the “Plant response rating, Oat, Wild” value [12, 27] was 0. For the same molecule, the “Plant response rating, Oat, Wild” value [12, 28] was 30, the “Plant response rating, Oat, Wild” value [12, 29] was 50 and the “Plant response rating, Oat, Wild” value [12, 25] was 70. For the same molecule, the “Oat, Wild plant response rating” value [12, 26] was 100, the “Ragweed plant response rating” value [13, 23] was 100 and the “Ragweed plant response rating” value [13, 24] was 100. The “Plant response rating (0 to 100), Ragweed” value ([13]; Postemergence, 31 g ai/ha) was 0, the “Plant response rating (0 to 100), Ragweed” value ([13]; Postemergence, 62 g ai/ha) was 0 and the “Plant response rating, Ragweed” value [13, 28] was 0. The “Plant response rating, Ragweed” value [13, 29] was 0, the “Plant response rating, Ragweed” value [13, 25] was 100 and the “Ragweed plant response rating” value [13, 26] was 100. The “Velvetleaf plant response rating” value [14, 23] was 90, the “Velvetleaf plant response rating” value [14, 24] was 100 and the “Plant response rating (0 to 100), Velvetleaf” value ([14]; Postemergence, 31 g ai/ha) was 0. For the same molecule, the “Plant response rating (0 to 100), Velvetleaf” value ([14]; Postemergence, 62 g ai/ha) was 0, the “Plant response rating, Velvetleaf” value [14, 28] was 5 and the “Plant response rating, Velvetleaf” value [14, 29] was 40. For the same molecule, the “Plant response rating, Velvetleaf” value [14, 25] was 40, the “Velvetleaf plant response rating” value [14, 26] was 100 and the “Goosegrass plant response rating” value [15, 23] was 100. The “Goosegrass plant response rating” value [15, 24] was 100, the “Plant response rating (0 to 100), Goosegrass” value ([15]; Postemergence, 31 g ai/ha) was 0 and the “Plant response rating, Goosegrass” value [15, 27] was 0. For the same molecule, the “Plant response rating, Goosegrass” value [15, 28] was 10, the “Plant response rating, Goosegrass” value [15, 29] was 50 and the “Plant response rating, Goosegrass” value [15, 25] was 100. The “Goosegrass plant response rating” value [15, 26] was 100, the “Johnsongrass plant response rating” value [16, 23] was 100 and the “Johnsongrass plant response rating” value [16, 24] was 100. For the same molecule, the “Plant response rating (0 to 100), Johnsongrass” value ([16]; Postemergence, 31 g ai/ha) was 0, the “Plant response rating, Johnsongrass” value [16, 27] was 0 and the “Plant response rating, Johnsongrass” value [16, 28] was 0. For the same molecule, the “Plant response rating, Johnsongrass” value [16, 29] was 0, the “Plant response rating, Johnsongrass” value [16, 25] was 70 and the “Johnsongrass plant response rating” value [16, 26] was 100. For the same molecule, the “Plant response rating, Velvetleaf” value ([17]; Postemergence, 125 g ai/ha) was 60, the “Velvetleaf plant response rating” value [17, 19] was 90 and the “Velvetleaf plant response rating” value [17, 20] was 100. The “Plant response rating, Velvetleaf” value ([17]; Preemergence, 500 g ai/ha) was 100, the “Plant response rating, Ducksalad” value [18, 21] was 70 and the “Plant response rating, Ducksalad” value [18, 22] was 85.
